Test results from patent publication US20110028360A1, “ORGANIC CORROSION INHIBITOR PACKAGE FOR ORGANIC ACIDS” (M-I DRILLING FLUIDS U.K. LIMITED, priority 2008, published 2011).

Legend:
[1] = Biodegradation according to OECD 301B
Method: (§1) Propoxylated prop-2-yn-1-ol, as a raw material for the corrosion inhibitor compositions disclosed herein, was tested for ecotoxicology. Biodegradation was measured according to OECD 301B. EC50 Toxicity was measured according to ISO/DP 10253. Bioaccumulation log Pow was measured according to OECD 117.

[2] = EC50 Toxicity according to ISO/DP 10253
Method: as §1

[3] = Bioaccumulation log Pow according to OECD 117; type: physicochemical
Method: as §1

propoxylated prop-2-yn-1-ol
Biodegradation [1]: 100% (OECD 301B)
Toxicity [2]: 100 mg/L
Bioaccumulation Log Pow [3]: 2
